Literature values in patent US20090202444A1 (priority 2009, published 2009).

System: bacteria

## [Ag+] [silver ion]
  silver ion concentration for inhibition of bacterial growth: below 5 ppm
